Data from ChEMBL document CHEMBL4359853, “Antiproliferative activity of (R)-4'-methylklavuzon on hepatocellular carcinoma cells and EpCAM+/CD133+ cancer stem cells via SIRT1 and Exportin-1 (CRM1) inhibition” (Eur J Med Chem, 2019).
Calls of active or inactive are those of the source. The rule behind the calls is not given here.

Experiments:
[1] = system: Huh-7; assay: Induction of reactive oxygen species generation in human HuH7 cells at 1 uM measured after 24 hrs by DCFDA staining assay; format: functional, cell-based
[2] = system: Huh-7; assay: Cell cycle arrest in human HuH7 cells assessed as increase in accumulation at G1 phase at 1 to 1.25 uM measured after 48 hrs by propidium iodide staining based flow cytometry analysis; format: functional
[3] = system: Huh-7; assay: Induction of apoptosis in human HuH7 cells assessed as change in cell morphology at 0.1 to 10 uM measured after 48 hrs by 2D microscopic analysis; format: functional, cell-based
[4] = system: Huh-7; assay: Upregulation of SIRT1 in human HuH7 cells assessed as fold change at 1 uM measured after 24 hrs by ELISA relative to control; format: functional
[5] = organism: Homo sapiens; assay: Inhibition of Sirtuin/HDAC in human HUH7 cells assessed as decrease in cell viability measured after 24 hrs; format: cell-based
[6] = system: Huh-7; assay: Cytotoxicity against human HuH7 cells expressing positive EpCAM/CD133 assessed as reduction in cell viability measured after 72 hrs by MTT assay; format: functional, cell-based; settings: Huh-7, 72 h
[7] = system: HepG2; assay: Induction of apoptosis in human 3D HepG2 spheroids at 10 uM measured after 24 hrs by propidium iodide staining based immunofluorescence microscopy analysis; format: functional, cell-based
[8] = system: Huh-7; assay: Induction of apoptosis in human HuH7 cells assessed as increase in early apoptotic cells at 10 uM measured after 48 hrs by Annexin V-FITC/propidium iodide staining based flow cytometry analysis; format: functional, cell-based
[9] = system: HepG2; assay: Cytotoxicity against human HepG2 cells assessed as reduction in cell viability measured after 72 hrs by MTT assay; format: functional, cell-based; settings: HepG2, 72 h
[10] = system: HepG2; assay: Cytotoxicity against human HepG2 cells assessed as reduction in cell viability measured after 48 hrs by MTT assay; format: functional, cell-based; settings: HepG2, 48 h
[11] = biological target: Histone-lysine N-methyltransferase EZH2 (Homo sapiens) (UniProt Q15910); assay: Activation of EZH2 in human HuH7 cells expressing positive EpCAM/CD133 assessed as upregulation of H3K27me3 expression measured after 4 hrs by Western blot analysis; format: cell-based
[12] = system: Huh-7; assay: Upregulation of p27 expression in human HuH7 cells at 1 to 3 uM measured after 24 to 72 hrs by SYBR-green based qPCR analysis; format: functional, cell-based
[13] = organism: Homo sapiens; assay: Inhibition of Sirtuin/HDAC in human HuH7 cells expressing positive EpCAM/CD133 assessed as decrease in cell viability measured after 24 hrs; format: cell-based
[14] = biological target: T1, NAD-dependent protein deacetylase sirtuin-1 (Homo sapiens) (UniProt Q96EB6); assay: Inhibition of human recombinant SIRT1 using FLUOR DE LYS SIRT1, deacetylase as substrate preincubated for 2 mins followed by substrate addition measured after 1 hr in presence of NAD+ by fluorescence assay
T1 sequence (whole entry): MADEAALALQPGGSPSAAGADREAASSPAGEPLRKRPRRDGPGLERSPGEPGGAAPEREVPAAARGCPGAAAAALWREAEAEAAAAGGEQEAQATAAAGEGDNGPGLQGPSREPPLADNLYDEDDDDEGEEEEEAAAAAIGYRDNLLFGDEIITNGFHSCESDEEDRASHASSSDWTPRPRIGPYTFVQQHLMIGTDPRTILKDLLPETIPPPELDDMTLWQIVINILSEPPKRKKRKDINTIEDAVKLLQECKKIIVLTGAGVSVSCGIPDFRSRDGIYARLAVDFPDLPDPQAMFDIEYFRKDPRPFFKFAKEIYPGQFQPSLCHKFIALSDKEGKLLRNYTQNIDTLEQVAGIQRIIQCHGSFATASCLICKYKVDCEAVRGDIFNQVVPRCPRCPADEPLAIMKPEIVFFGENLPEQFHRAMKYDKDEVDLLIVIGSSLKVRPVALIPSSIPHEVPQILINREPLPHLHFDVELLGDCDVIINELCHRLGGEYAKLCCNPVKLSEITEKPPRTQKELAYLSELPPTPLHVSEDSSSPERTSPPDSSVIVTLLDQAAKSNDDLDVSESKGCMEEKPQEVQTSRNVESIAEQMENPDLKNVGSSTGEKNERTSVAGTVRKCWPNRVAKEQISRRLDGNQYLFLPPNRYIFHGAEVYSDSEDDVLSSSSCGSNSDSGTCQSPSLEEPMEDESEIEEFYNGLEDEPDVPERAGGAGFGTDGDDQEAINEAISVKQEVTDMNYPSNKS

[15] = system: Huh-7; assay: Cytotoxicity against human HuH7 cells assessed as effect on SIRT1 protein level at 5 uM measured after 24 hrs by ELISA; format: functional, cell-based
[16] = system: HepG2; assay: Induction of apoptosis in human 3D HepG2 spheroids at 0.1 uM measured after 24 hrs by propidium iodide staining based immunofluorescence microscopy analysis; format: functional, cell-based
[17] = system: Huh-7; assay: Upregulation of p21 expression in human HuH7 cells at 1 to 3 uM measured after 24 to 72 hrs by SYBR-green based qPCR analysis; format: functional, cell-based
[18] = system: Huh-7; assay: Cell cycle arrest in human HuH7 negative EpCAM/CD133 cells assessed as increase in accumulation at G2 phase at 10 uM measured after 48 hrs by propidium iodide staining based flow cytometry analysis; format: functional
[19] = system: Huh-7; assay: Cytotoxicity against human HuH7 cells assessed as reduction in cell viability measured after 24 hrs by MTT assay; format: functional, cell-based; settings: Huh-7, 24 h
[20] = system: HepG2; assay: Induction of 3D spheroid death in human HepG2 cells assessed as upregulation of p53 measured after 24 hrs by DAPI staining based fluorescence microscopy analysis assay; format: functional, cell-based
[21] = system: Huh-7; assay: Cytotoxicity against human HuH7 cells negative EpCAM/CD133 assessed as reduction in cell viability measured after 24 hrs by MTT assay; format: functional, cell-based; settings: Huh-7, 24 h
[22] = biological target: T1, NAD-dependent protein deacetylase sirtuin-1 (Homo sapiens); assay: Inhibition of human recombinant SIRT1 at 100 uM using FLUOR DE LYS SIRT1, deacetylase as substrate preincubated for 2 mins followed by substrate addition measured after 1 hr in presence of NAD+ by fluorescence assay relative to control
[23] = system: Huh-7; assay: Upregulation of SIRT1 in human HuH7 cells assessed as fold change at 5 uM measured after 24 hrs by ELISA relative to control; format: functional
[24] = system: Huh-7; assay: Cytotoxicity against human HuH7 cells expressing positive EpCAM/CD133 assessed as reduction in cell viability measured after 24 hrs by MTT assay; format: functional, cell-based; settings: Huh-7, 24 h
[25] = organism: Homo sapiens; assay: Inhibition of class 1/2 HDAC in human HuH7 EpCAM/CD133 positive cells nuclear extract at 0.1 to 81 uM after 24 hrs by fluorescence based assay
[26] = organism: Homo sapiens; assay: Inhibition of Sirtuin/HDAC in human HUH7 cells assessed as decrease in enzymatic activity at 0.10 to 5 uM measured after 24 hrs relative to control; format: cell-based
[27] = biological target: Exportin-1 (Homo sapiens) (UniProt O14980); assay: Inhibition of CRM1 in human HepG2 cells assessed as upregulation of p53 by measuring accumulation in nucleus at 0.1 to 10 uM measured after 6 to 24 hrs by DAPI staining based immunofluorescence microscopy analysis; format: cell-based
[28] = biological target: Exportin-1 (Homo sapiens) (UniProt O14980); assay: Inhibition of CRM1 in human HuH7 cells assessed as accumulation of RIOK2 in nucleus at 1 and 10 uM measured after 24 hrs by DAPI staining based confocal microscopy analysis; format: cell-based

Sequence of Exportin-1 (Homo sapiens) (O14980 whole entry): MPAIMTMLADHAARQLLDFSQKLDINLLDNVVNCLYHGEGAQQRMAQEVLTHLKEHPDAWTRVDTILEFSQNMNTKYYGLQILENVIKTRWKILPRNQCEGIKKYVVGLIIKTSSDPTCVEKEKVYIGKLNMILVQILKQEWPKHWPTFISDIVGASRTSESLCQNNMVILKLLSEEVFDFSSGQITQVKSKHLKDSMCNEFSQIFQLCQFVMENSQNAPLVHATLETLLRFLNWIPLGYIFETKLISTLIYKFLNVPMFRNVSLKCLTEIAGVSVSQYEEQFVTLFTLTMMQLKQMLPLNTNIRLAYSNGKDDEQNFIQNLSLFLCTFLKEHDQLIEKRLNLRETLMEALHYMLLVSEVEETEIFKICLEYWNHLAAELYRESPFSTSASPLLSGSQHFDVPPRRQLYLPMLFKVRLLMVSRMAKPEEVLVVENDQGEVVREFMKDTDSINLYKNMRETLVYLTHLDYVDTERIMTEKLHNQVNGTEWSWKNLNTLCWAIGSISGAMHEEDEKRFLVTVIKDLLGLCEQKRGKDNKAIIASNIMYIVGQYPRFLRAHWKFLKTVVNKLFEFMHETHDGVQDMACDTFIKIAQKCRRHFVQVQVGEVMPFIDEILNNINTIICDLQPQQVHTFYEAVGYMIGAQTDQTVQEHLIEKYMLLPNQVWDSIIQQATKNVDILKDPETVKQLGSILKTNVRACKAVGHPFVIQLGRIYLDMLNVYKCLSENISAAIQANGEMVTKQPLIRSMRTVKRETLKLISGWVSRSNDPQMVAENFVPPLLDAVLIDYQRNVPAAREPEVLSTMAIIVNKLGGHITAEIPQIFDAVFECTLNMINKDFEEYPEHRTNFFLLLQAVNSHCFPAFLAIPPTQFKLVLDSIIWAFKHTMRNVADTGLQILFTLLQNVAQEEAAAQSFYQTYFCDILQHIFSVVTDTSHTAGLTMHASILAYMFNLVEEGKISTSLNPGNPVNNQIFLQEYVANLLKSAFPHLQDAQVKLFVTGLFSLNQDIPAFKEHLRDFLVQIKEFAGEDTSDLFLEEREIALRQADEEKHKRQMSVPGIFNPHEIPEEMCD
Sequence of Histone-lysine N-methyltransferase EZH2 (Homo sapiens) (Q15910 whole entry, looked up): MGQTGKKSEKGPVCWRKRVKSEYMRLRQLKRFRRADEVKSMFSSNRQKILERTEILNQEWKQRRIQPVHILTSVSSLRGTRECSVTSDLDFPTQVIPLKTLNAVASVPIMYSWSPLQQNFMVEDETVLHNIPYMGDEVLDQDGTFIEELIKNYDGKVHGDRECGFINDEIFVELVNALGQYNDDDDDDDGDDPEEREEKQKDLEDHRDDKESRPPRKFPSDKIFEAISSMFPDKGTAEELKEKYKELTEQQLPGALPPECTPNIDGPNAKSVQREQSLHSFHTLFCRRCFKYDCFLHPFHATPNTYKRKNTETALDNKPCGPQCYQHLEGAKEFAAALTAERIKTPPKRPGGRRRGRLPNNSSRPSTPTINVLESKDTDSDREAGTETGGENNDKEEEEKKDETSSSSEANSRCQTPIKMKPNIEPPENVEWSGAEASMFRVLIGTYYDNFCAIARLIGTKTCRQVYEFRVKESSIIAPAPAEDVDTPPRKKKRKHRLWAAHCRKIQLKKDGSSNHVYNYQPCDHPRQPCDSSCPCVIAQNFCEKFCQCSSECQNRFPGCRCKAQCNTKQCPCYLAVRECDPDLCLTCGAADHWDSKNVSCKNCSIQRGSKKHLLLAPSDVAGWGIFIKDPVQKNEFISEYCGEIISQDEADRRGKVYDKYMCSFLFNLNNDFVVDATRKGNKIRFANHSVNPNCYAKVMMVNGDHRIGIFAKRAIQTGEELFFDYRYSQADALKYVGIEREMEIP

- Activity [11]: Active
- inhibition [14]: Dose-dependent effect
- inhibition [22]: 50%
- inhibition [25]: inactive
- inhibition [27]: Active
- inhibition [28]: Active
Structure (SMILES): Cc1ccc([C@H]2CC=CC(=O)O2)c2ccccc12
- Activity [1]: Active
- Activity [2]: Active
- Activity [3]: Active
- fold change (FC) [4]: 3.3
- inhibition [5]: Active
- IC50 [6]: 1.25 µM
- Activity [7]: Active
- Activity [8]: Active
- IC50 [9]: 0.1 µM
- IC50 [10]: 0.25 µM
- Activity [12]: Active
- inhibition [13]: Active
- Activity [15]: Active
- Activity [16]: inactive
- Activity [17]: Active
- Activity [18]: Active
- IC50 [19]: 10 µM
- Activity [20]: Dose-dependent effect
- IC50 [21]: 10 µM
- fold change (FC) [23]: 2
- IC50 [24]: 10 µM
- inhibition [26]: 35 to 40%
